According to ChEMBL document CHEMBL5036336, “Structure-Guided Optimization Provides a Series of TTK Protein Inhibitors with Potent Antitumor Activity” (J Med Chem, 2021):

Tests used:
[1] = biological target: T1, Dual specificity protein kinase TTK (Homo sapiens, UniProt P33981); assay: Displacement of kinase tracer 236 from TTK (unknown origin) by LanthaScreen Eu kinase binding assay
T1 sequence (P33981 whole entry): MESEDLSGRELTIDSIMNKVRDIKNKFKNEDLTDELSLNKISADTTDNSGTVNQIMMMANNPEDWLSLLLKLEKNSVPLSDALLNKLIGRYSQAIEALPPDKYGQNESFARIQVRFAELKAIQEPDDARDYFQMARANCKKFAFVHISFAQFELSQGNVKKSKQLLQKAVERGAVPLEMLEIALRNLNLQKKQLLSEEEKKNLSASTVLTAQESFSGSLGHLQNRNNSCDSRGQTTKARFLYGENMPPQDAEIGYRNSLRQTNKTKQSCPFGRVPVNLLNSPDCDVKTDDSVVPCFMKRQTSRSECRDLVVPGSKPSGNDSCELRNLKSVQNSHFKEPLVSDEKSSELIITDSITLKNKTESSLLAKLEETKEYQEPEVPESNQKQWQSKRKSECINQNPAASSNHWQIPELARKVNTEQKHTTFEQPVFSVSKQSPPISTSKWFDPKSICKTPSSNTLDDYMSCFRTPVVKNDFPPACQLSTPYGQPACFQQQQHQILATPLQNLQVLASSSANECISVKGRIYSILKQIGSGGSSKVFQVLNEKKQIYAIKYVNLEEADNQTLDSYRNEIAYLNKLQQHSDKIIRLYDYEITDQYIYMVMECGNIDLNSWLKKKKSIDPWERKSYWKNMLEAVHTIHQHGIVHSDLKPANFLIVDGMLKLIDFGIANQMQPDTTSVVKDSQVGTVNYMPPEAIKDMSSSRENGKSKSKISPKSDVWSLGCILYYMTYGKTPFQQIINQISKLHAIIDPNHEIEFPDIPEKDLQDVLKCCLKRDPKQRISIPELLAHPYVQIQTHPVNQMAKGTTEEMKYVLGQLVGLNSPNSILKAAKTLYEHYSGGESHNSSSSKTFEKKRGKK

[2] = biological target: T2, Leucine-rich repeat serine/threonine-protein kinase 2 (Homo sapiens, UniProt Q5S007); assay: Inhibition of LRRK2 (unknown origin) at 3 uM by ADAPTA assay relative to control
[3] = Clearance in rat at 2 mg/kg, iv; format: ADME, organism-based; conditions: in vivo
[4] = biological target: T2, Leucine-rich repeat serine/threonine-protein kinase 2; assay: Inhibition of LRRK2 (unknown origin) by ADAPTA assay
[5] = biological target: Leucine-rich repeat serine/threonine-protein kinase 2 (Homo sapiens, UniProt Q5S007, G2019S); assay: Inhibition of LRRK2 G2019S mutant (unknown origin) by ADAPTA assay
[6] = biological target: T3, Proto-oncogene tyrosine-protein kinase Src (Homo sapiens, UniProt P12931); assay: Inhibition of SRC N1 (unknown origin) by Z-lyte assay
Homo sapiens [7] = organism: Homo sapiens; assay: Selectivity ratio of IC50 for inhibition of LRRK2 G2019S mutant (unknown origin) to IC50 for inhibition of TTK (unknown origin)
Homo sapiens [8] = organism: Homo sapiens; assay: Selectivity ratio of IC50 for inhibition of TSSK2 (unknown origin) to IC50 for inhibition of TTK (unknown origin)
[9] = Inhibition of KNL1 autophosphorylation at T943 residue in human CAL-51 cells measured after 1 hr by Western blot analysis; format: cell-based; conditions: CAL-51, 1 h
[10] = Clearance in mouse at 2 mg/kg, iv; format: ADME, organism-based; conditions: in vivo
[11] = Volume of distribution at steady state in rat at 2 mg/kg, iv; format: ADME, organism-based; conditions: in vivo, read-out: Vdss
[12] = Volume of distribution at steady state in mouse at 2 mg/kg, iv; format: ADME, organism-based; conditions: in vivo, read-out: Vdss
[13] = AUC in mouse at 2 mg/kg, iv; format: ADME, organism-based; design: dose 2 mg/kg; conditions: in vivo
[14] = Antitumor activity against human CAL-51 cells xenografted in CB17-SCID mouse assessed as tumor growth inhibition at 30 to 50 mg/kg, iv administered once per week for 16 days relative to control; format: functional; conditions: dose 30-50 mg/kg, time 16 day
[15] = tested on: Leucine-rich repeat serine/threonine-protein kinase 2 (Homo sapiens), Q5S007 [G2019S]; assay: Inhibition of LRRK2 G2019S mutant (unknown origin) at 3 uM by ADAPTA assay relative to control
[16] = biological target: Mitogen-activated protein kinase 9 (Homo sapiens, UniProt P45984); assay: Inhibition of JNK2 (unknown origin) at 3 uM by Z-lyte assay relative to control
[17] = biological target: MAP kinase-activated protein kinase 3 (Homo sapiens, UniProt Q16644); assay: Inhibition of MAPKAPK3 (unknown origin) at 3 uM by Z-lyte assay relative to control
[18] = biological target: T3, Proto-oncogene tyrosine-protein kinase Src; assay: Inhibition of SRC N1 (unknown origin) at 3 uM by Z-lyte assay relative to control
[19] = biological target: Testis-specific serine/threonine-protein kinase 1 (Homo sapiens) (UniProt Q9BXA7); assay: Inhibition of TSSK1 (unknown origin) at 3 uM by Z-lyte assay relative to control
Cytochrome P450 2C8 = Cytochrome P450 2C8 (Homo sapiens, UniProt P10632); assay: Time dependent inhibition of CYP2C8 in human liver microsomes; format: ADME
Homo sapiens [20] = organism: Homo sapiens; assay: Inhibition of Bombesin receptor (unknown origin) at 10 uM relative to control

T3 sequence (P12931 2-536 limits assumed): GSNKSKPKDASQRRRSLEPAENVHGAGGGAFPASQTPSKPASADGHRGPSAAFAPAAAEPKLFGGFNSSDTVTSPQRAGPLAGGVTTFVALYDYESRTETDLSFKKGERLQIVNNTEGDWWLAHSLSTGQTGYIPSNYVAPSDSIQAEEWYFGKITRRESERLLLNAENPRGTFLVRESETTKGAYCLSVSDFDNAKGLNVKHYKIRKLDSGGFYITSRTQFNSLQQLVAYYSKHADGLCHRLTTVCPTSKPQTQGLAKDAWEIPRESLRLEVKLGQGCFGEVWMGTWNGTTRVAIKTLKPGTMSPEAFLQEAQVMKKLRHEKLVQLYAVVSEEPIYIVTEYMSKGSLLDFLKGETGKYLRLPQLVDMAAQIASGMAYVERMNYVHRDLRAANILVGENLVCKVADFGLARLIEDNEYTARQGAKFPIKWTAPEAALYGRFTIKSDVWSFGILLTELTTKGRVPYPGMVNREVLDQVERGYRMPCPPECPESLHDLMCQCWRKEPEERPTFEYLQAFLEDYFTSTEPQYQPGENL
T2 sequence (Q5S007 whole entry): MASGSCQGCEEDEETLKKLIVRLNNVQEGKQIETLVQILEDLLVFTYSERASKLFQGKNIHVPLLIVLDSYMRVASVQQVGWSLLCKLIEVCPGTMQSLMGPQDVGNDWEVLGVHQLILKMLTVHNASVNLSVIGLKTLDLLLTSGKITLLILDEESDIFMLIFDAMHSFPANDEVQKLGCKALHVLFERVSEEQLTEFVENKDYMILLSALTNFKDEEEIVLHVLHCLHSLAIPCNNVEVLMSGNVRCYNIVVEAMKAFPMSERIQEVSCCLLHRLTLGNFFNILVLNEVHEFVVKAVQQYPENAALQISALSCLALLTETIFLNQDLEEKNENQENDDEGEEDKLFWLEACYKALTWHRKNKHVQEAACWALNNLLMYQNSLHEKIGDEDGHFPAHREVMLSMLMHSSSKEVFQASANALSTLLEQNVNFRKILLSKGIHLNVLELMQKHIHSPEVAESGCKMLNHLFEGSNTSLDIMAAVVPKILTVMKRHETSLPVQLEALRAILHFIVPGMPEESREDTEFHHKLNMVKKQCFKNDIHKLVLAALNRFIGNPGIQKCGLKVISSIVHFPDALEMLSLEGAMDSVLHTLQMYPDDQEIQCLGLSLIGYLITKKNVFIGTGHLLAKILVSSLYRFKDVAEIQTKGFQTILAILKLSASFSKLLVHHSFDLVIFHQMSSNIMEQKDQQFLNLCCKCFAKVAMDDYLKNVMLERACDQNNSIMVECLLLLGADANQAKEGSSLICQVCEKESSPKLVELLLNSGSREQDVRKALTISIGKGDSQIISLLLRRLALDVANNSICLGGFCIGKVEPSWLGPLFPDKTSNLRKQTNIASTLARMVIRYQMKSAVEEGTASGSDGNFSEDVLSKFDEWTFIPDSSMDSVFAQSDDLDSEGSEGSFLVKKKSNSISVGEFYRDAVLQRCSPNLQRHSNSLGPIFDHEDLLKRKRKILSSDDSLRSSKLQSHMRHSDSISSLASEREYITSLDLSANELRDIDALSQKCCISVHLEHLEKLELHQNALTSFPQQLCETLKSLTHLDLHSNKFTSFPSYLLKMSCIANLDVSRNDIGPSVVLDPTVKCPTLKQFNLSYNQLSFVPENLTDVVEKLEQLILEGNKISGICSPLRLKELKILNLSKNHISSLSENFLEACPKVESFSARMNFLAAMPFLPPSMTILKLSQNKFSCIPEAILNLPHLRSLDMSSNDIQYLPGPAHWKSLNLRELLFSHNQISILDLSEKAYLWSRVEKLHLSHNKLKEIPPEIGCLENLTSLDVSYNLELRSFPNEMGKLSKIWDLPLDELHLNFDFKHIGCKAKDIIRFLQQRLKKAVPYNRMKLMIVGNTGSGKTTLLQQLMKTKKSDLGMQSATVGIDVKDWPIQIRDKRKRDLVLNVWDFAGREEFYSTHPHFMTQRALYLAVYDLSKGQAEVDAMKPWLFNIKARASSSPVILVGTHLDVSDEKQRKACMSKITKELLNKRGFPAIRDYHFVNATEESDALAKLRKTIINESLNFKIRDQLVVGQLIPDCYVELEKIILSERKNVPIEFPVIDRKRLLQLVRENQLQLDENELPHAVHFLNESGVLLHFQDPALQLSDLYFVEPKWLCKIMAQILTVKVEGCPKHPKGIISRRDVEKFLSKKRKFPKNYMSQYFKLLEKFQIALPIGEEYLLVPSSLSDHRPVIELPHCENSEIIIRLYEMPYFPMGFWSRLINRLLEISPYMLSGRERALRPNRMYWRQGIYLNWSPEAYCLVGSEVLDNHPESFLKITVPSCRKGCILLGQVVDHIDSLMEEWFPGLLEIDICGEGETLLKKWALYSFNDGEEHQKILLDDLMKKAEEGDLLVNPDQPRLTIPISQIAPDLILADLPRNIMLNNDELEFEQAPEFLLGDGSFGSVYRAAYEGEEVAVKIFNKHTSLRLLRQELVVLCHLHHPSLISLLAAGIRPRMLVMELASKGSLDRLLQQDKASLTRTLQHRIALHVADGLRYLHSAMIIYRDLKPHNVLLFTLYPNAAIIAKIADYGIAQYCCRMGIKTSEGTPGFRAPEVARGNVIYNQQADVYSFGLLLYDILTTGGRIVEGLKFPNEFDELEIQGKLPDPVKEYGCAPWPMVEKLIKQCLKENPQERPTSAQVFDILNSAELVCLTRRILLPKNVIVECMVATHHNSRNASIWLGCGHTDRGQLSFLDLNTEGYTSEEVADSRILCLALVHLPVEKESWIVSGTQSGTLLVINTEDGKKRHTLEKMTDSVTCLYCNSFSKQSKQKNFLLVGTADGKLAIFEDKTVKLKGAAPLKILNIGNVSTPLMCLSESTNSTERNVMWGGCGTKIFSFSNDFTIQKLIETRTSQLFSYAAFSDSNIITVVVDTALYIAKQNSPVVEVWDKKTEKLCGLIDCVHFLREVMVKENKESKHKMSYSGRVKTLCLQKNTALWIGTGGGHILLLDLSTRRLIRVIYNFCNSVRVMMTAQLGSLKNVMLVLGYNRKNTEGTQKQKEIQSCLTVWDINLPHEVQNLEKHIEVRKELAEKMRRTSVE
Mitogen-activated protein kinase 9, sequence (P45984 whole entry, looked up): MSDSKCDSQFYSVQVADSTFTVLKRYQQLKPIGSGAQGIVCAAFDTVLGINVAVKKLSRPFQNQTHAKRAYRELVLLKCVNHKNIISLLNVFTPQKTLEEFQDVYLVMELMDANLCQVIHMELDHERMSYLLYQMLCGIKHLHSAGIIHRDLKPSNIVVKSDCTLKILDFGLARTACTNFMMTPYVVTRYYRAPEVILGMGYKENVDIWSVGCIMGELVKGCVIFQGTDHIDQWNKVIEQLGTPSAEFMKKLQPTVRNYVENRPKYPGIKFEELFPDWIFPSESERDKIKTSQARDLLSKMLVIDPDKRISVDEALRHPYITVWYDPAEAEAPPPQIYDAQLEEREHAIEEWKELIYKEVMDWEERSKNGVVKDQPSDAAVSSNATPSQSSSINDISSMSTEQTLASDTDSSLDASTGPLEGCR
Leucine-rich repeat serine/threonine-protein kinase 2 (Homo sapiens, UniProt Q5S007, G2019S), sequence (Q5S007 whole entry G2019S): as the sequence (Q5S007 whole entry) above, with G2019S counted along it
Leucine-rich repeat serine/threonine-protein kinase 2 (Homo sapiens), Q5S007 [G2019S], sequence (Q5S007 whole entry G2019S): as the sequence (Q5S007 whole entry) above, with G2019S counted along it
Cytochrome P450 2C8, sequence (P10632 whole entry): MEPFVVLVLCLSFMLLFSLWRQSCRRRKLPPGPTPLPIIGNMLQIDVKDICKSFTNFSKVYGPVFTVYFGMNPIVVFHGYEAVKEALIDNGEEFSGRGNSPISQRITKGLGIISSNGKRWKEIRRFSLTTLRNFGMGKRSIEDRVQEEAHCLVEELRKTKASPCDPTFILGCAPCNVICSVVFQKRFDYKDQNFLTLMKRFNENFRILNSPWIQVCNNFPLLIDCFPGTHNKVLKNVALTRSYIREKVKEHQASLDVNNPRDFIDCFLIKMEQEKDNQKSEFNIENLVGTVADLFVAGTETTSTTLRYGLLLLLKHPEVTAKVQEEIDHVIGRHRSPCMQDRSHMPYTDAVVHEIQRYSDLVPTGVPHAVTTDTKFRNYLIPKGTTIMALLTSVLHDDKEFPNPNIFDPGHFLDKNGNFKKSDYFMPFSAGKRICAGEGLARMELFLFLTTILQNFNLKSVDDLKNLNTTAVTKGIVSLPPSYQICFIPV
Testis-specific serine/threonine-protein kinase 1 (Homo sapiens), sequence (Q9BXA7 whole entry): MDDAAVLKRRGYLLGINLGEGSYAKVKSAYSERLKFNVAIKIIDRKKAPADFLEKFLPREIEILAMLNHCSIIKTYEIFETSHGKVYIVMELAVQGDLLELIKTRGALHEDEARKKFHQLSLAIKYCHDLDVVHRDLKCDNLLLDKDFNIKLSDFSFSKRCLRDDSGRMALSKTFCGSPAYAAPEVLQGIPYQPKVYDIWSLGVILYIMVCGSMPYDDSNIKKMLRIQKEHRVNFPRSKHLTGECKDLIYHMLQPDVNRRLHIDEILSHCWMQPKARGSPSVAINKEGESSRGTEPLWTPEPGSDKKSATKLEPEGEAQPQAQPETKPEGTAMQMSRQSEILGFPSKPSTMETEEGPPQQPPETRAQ
MAP kinase-activated protein kinase 3, sequence (Q16644 whole entry, looked up): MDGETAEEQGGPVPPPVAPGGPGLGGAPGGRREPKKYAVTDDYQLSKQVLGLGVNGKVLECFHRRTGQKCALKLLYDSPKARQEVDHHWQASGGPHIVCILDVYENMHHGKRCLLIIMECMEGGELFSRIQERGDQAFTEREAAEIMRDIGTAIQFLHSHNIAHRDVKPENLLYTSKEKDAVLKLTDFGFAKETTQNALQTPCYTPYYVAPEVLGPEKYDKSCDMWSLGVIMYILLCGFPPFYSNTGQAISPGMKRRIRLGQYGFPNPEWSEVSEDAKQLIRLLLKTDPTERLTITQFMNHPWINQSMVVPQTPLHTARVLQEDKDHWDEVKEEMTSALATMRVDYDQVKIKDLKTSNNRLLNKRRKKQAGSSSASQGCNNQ

- IC50 [1]: 3 nM
- inhibition [2]: > 80%
- clearance [3]: 2.8 mL/min/kg
- IC50 [4]: 342 nM
- IC50 [5]: 229 nM
- IC50 [6]: 1300 nM
- Ratio IC50 (Homo sapiens [7]): 76.3
- Ratio IC50 (Homo sapiens [8]): 315
- IC50 [9]: 48 nM
- clearance [10]: 8.8 mL/min/kg
- Vd [11]: 0.66 L/kg
- Vd [12]: 0.53 L/kg
- AUC [13]: 5.29 µM·h
- inhibition [15]: > 80%
- inhibition [16]: > 80%
- inhibition [17]: > 80%
- inhibition [18]: > 80%
- inhibition [19]: > 80%
- IC50 (Cytochrome P450 2C8): > 30 µM
- inhibition (Homo sapiens [20]): 80%
SMILES: CCc1cccc(CC)c1N1CCn2cc(-c3nc(Nc4ccc(N5CCC(C(=O)N6CC7(CN(C)C7)C6)CC5)cc4OC)nc4[nH]ccc34)cc2C1=O
- TGI [14]: >60%
